Test results: patent US11407719B2, “Anti-inflammatory agents” (Resverlogix Corp., priority 2009, dated 2022)

Assays:
[1] = test system: hIL-6 mRNA; assay: Quantification of hIL-6 mRNA; type: cell-based, human; set-up: key: Active: an active compound is one that causes a ≥20% inhibition in IL-6 mRNA at a concentration less than or equal to 10 μM; settings: IL-6 mRNA by real-time PCR; differentiated U937 cells, 1 h pretreatment, lipopolysaccharide stimulation 3 h; concentration ≤10 μM
Method in brief: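 U937 cells, differentiated for 3 days, were pretreated with compound for 1 h and then stimulated with E. coli LPS for 3 h at 37 °C. IL-6 mRNA was quantified by one-step qRT-PCR, with Ct normalized to an internal control, and fold induction was expressed relative to control.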

[2] = test system: VCAM-1 mRNA; assay: Quantification of hVCAM mRNA; type: cell-based, human; set-up: key: Active: an active compound is one that causes a ≥20% inhibition in VCAM-1 mRNA at a concentration less than or equal to 10 μM; -1 mRNA at a concentration less than or equal to 10 μM; settings: VCAM-1 mRNA by real-time PCR; HUVECs, 1 h pretreatment, tumor necrosis factor-α stimulation 24 h; concentration ≤10 μM
Description: In this example, […] in tissue culture cells was quantitated to measure the transcriptional inhibition of hVCAM when treated with a compound of the invention.
Human umbilical vein endothelial cells (HUVECs) were plated in a 96-well plate (4.0×10^3 cells/well) in 100 μL EGM media and incubated for 24 h prior to the addition of the compound of interest. The cells were pretreated for 1 h with the test compound prior to stimulation with tumor necrosis factor-α. The cells were incubated for an additional 24 h before the cells were harvested. At time of harvest, the spent media was removed from the HUVECs and rinsed in 200 μL PBS. Cell lysis solution (70 μL) was then added the cells in each well and incubated for ˜5-10 min at room temperature, to allow for complete cell lysis and detachment. mRNA was then prepared using the “mRNA Catcher PLUS plate” (Invitrogen), according to the protocol supplied. After the last wash, as much wash buffer as possible was aspirated without allowing the wells to dry. Elution buffer (E3, 70 μL) was then added to each well. mRNA was then eluted by incubating the mRNA Catcher PLUS plate with elution buffer for 5 min at 68° C. and then immediately placing the plate on ice.
The eluted mRNA so isolated was then used in a one-step quantitative real-time PCR reaction, using components of the Ultra Sense Kit together with Applied Biosystems primer-probe mixes. Real-time PCR data was analyzed, normalizing the Ct values for hVCAM to an internal control, prior to determining the fold induction of each unknown sample, relative to the control.

Row | melting point [°C] | Compound | Inhibition of IL-6 expression [1] | Inhibition of VCAM-1 expression [2]
1 | 179 to 180 | Cc1cc(-c2nc3cccc(Cl)c3c(=O)[nH]2)cc(C)c1OCCN1CCCC1 [5-Chloro-2-(3,5-dimethyl-4-(2-(pyrrolidin-1-yl)ethoxy)phenyl)quinazolin-4(3H)-one] | Active | Active
2 | 264 to 265 | COc1cc(OCCNC(C)=O)cc(-c2nc3cc(OC)cc(OC)c3c(=O)[nH]2)c1 [N-(2-(3-(5,7-dimethoxy-4-oxo-3,4-dihydroquinazolin-2-yl)-5-methoxyphenoxy)ethyl)acetamide] | Active | Active
3 | 225 to 227 | COCCOc1cc(OC)c2c(=O)[nH]c(-c3ccc(N4C[C@@H](C)N(C(C)=O)[C@@H](C)C4)cc3)nc2c1 [2-(4-((3R,5S)-4-Acetyl-3,5-dimethylpiperazin-1-yl)phenyl)-5-methoxy-7-(2-methoxyethoxy)quinazolin-4(3H)-one] | Active | –
4 | 284 to 286 | COc1cc(OC)c2c(=O)[nH]c(-c3ccc(N4CCC(O)CC4)cc3)nc2n1 [2-(4-(4-Hydroxypiperidin-1-yl)phenyl)-5,7-dimethoxypyrido[2,3-d]pyrimidin-4(3H)-one] | Active | –
5 | 111.8 to 113.6 | COc1cc(OC)c2c(=O)[nH]c(-c3cc(C)c(OCCN4CC(NC(C)=O)C4)c(C)c3)nc2c1 [N-(1-(2-(4-(5,7-Dimethoxy-4-oxo-3,4-dihydroquinazolin-2-yl)-2,6-dimethylphenoxy)ethyl)azetidin-3-yl)acetamide] | Active | –
6 | 295 to 296 | COc1cc(OC)c2c(=O)[nH]c(-c3ccc(Cc4nnn[nH]4)cc3)nc2c1 [2-(4-((1H-Tetrazol-5-yl)methyl)phenyl)-5,7-dimethoxyquinazolin-4(3H)-one] | Active | –
7 | 226 to 227 | COc1cc(OC)c2c(=O)[nH]c(-c3ccc(OCCN4CCCC4)cc3)nc2c1 [5,7-Dimethoxy-2-(4-(2-(pyrrolidin-1-yl)ethoxy)phenyl)quinazolin-4(3H)-one] | Active | –
8 | 216 to 217 | Cc1cc(-c2nc3c(Cl)cccc3c(=O)[nH]2)cc(C)c1OCCN1CCCC1 [8-Chloro-2-(3,5-dimethyl-4-(2-(pyrrolidin-1-yl)ethoxy)phenyl)quinazolin-4(3H)-one] | Active | –

The next lines start with the compound.

Row | Compound | melting point [°C] | Inhibition of IL-6 expression [1] | Inhibition of VCAM-1 expression [2]
9 | COc1ccc2c(=O)[nH]c(-c3cc(C)c(OCCN4CCCC4)c(C)c3)nc2c1 [2-(3,5-Dimethyl-4-(2-(pyrrolidin-1-yl)ethoxy)phenyl)-7-methoxyquinazolin-4(3H)-one] | 218 to 220 | Active | Active
10 | COc1cc(OCCOC(C)C)cc2nc(-c3cc(C)nc(C)c3)[nH]c(=O)c12 [2-(2,6-Dimethylpyridin-4-yl)-7-(2-isopropoxyethoxy)-5-methoxyquinazolin-4(3H)-one] | 188 to 189 | Active | Active
11 | COc1cc(OCCN2CCCC2)cc2nc(-c3cc(C)nc(C)c3)[nH]c(=O)c12 [2-(2,6-Dimethylpyridin-4-yl)-5-methoxy-7-(2-(pyrrolidin-1-yl)ethoxy)quinazolin-4(3H)-one] | 227 to 229 | Active | Inactive
12 | COc1cc(OC)c2c(=O)[nH]c(-c3cc(C)c(CCCN4CCCC4)c(C)c3)nc2c1 [2-(3,5-Dimethyl-4-(3-(pyrrolidin-1-yl)propyl)phenyl)-5,7-dimethoxyquinazolin-4(3H)-one] | 194 to 196 | Active | Active
13 | COc1cccc2c(=O)[nH]c(-c3cc(C)c(OCCN4CCCC4)c(C)c3)nc12 [2-(3,5-Dimethyl-4-(2-(pyrrolidin-1-yl)ethoxy)phenyl)-8-methoxyquinazolin-4(3H)-one] | 231 to 232 | Active | Active
14 | COc1cc(OCCOc2ccccc2)c2c(=O)[nH]c(-c3cc(C)nc(C)c3)nc2c1 [2-(2,6-Dimethylpyridin-4-yl)-7-methoxy-5-(2-phenoxyethoxy)quinazolin-4(3H)-one] | 172.3 to 173.2 | Active | Active
15 | COCCOc1cc(OCCN2CCCC2)c2c(=O)[nH]c(-c3cc(C)nc(C)c3)nc2c1 [2-(2,6-Dimethylpyridin-4-yl)-7-(2-methoxyethoxy)-5-(2-(pyrrolidin-1-yl)ethoxy)quinazolin-4(3H)-one] | 60.4 to 62.3 | Active | Active
16 | COc1cc(OC)c2c(=O)[nH]c(-c3cccc(OCCO)c3)nc2c1 [2-(3-(2-Hydroxyethoxy)phenyl)-5,7-dimethoxyquinazolin-4(3H)-one] | 244.8 to 246 | Active | Active
17 | Cc1cc(-c2nc3ccc(CCN4CCCC4)cc3c(=O)[nH]2)cc(C)n1 [2-(2,6-Dimethylpyridin-4-yl)-6-(2-(pyrrolidin-1-yl)ethyl)quinazolin-4(3H)-one] | 212.3 to 213.2 | Active | Active
18 | COc1cc(OC)c2c(=O)[nH]c(-c3cc(C)nc(C)c3)nc2c1 [2-(2,6-Dimethylpyridin-4-yl)-5,7-dimethoxyquinazolin-4(3H)-one] | 291 to 292 | Active | –
19 | Cc1cc(-c2nc3ccc(CN4CCN(C)CC4)cc3c(=O)[nH]2)cc(C)n1 [2-(2,6-Dimethylpyridin-4-yl)-6-((4-methylpiperazin-1-yl)methyl)quinazolin-4(3H)-one] | 229 to 230 | Active | –
20 | COc1cc(OC)c2c(=O)n(CCCN3CCCC3)c(-c3cc(C)c(OCCCN4CCCC4)c(C)c3)nc2c1 [2-(3,5-Dimethyl-4-(3-(pyrrolidin-1-yl)propoxy)phenyl)-5,7-dimethoxy-3-(3-(pyrrolidin-1-yl)propyl)quinazolin-4(3H)-one] | 109 to 111 | Active | –
21 | COc1cc(OC)c2c(=O)[nH]c(-c3cc(C)c(OCCN4CCC4)c(C)c3)nc2c1 [2-(4-(2-(Azetidin-1-yl)ethoxy)-3,5-dimethylphenyl)-5,7-dimethoxyquinazolin-4(3H)-one] | 204 to 205 | Active | –
22 | COCCOc1cc(OC)c2c(=O)[nH]c(-c3cc(C)nc(C)c3)nc2c1 [2-(2,6-Dimethylpyridin-4-yl)-5-methoxy-7-(2-methoxyethoxy)quinazolin-4(3H)-one] | 228.8 to 230.4 | Active | –
23 | Cc1cc(C)c2c(=O)[nH]c(-c3cc(C)c(OCCN4CCCC4)c(C)c3)nc2c1 [2-(3,5-Dimethyl-4-(2-(pyrrolidin-1-yl)ethoxy)phenyl)-5,7-dimethylquinazolin-4(3H)-one] | 181 to 182 | Active | –
24 | Cc1cc(-c2nc3cc(OC(C)C)cc(OC(C)C)c3c(=O)[nH]2)cc(C)c1OCCN1CCCC1 [2-(3,5-Dimethyl-4-(2-(pyrrolidin-1-yl)ethoxy)phenyl)-5,7-diisopropoxyquinazolin-4(3H)-one] | 65 to 68 | Active | –
25 | Cc1cc(-c2nc3cc(F)cc(N4CCCC4)c3c(=O)[nH]2)cc(C)c1OCCN1CCCC1 [2-(3,5-Dimethyl-4-(2-(pyrrolidin-1-yl)ethoxy)phenyl)-7-fluoro-5-(pyrrolidin-1-yl)quinazolin-4(3H)-one] | – | Active | Active
26 | CCN(C(C)=O)C1CCN(c2ccc(-c3nc4cc(OC)cc(OC)c4c(=O)[nH]3)cc2)CC1 [N-(1-(4-(5,7-Dimethoxy-4-oxo-3,4-dihydroquinazolin-2-yl)phenyl)piperidin-4-yl)-N-ethylacetamide] | – | Active | Active
27 | CCCCCC(=O)N1CCN(c2ccc(-c3nc4cc(OC)cc(OC)c4c(=O)[nH]3)cc2)CC1 [2-(4-(4-Hexanoylpiperazin-1-yl)phenyl)-5,7-dimethoxyquinazolin-4(3H)-one] | – | Active | Inactive
